# Assay results taken from US11214803B2, “Modulators of YAP1 expression” (Ionis Pharmaceuticals, Inc., priority 2019, dated 2022).
# Strand notation (5' to 3'): a small letter for the sugar, then the base; units joined by * are phosphorothioate-linked, units joined directly phosphodiester-linked; [ ] holds rarer units or linkages, { } end groups; capitals alone tell only the bases. k = constrained ethyl (cEt); [5mC] = 5-methylcytosine; d = 2'-deoxy (DNA)
# Test system: Yap1 mRNA
# Experiment: Antisense inhibition of human Yap1 in A-431 cells by cEt gapmers, single dose (Example 2, RTS4814)
# Type: cell-based
# Conditions: A-431 cells, 5,000 cells per well, free uptake, 2,000 nM modified oligonucleotide, approx. 48 hours, RTS4814, normalized to RIBOGREEN; Table 4; asterisk (*) = targets amplicon region of primer probe set
# Procedure, shortened: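 Each 16-nucleoside gapmer (ten-deoxy gap, three-cEt wings) is tested once at 2,000 nM in A-431 cells by free uptake. Yap1 mRNA after about 48 hours is measured by quantitative RT-PCR and expressed relative to untreated control.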
row,Substance,YAP1 (% UTC)
1,716442 (kG*k[5mC]*kA*d[5mC]*dT*dA*dG*dG*dA*dG*dG*dA*dA*kA*kA*kG; antisense) [Compound 716442],63
2,716439 (kG*kT*kA*dT*dT*dT*dA*dA*dT*dA*dT*d[5mC]*dA*kG*kA*kT; antisense) [Compound 716439],77
3,716556 (kG*k[5mC]*kA*dT*dT*dA*dA*dA*dG*dA*dA*dT*dT*k[5mC]*kT*k[5mC]; antisense) [Compound 716556],39

# Same assay, conditions: Table 5; A-431 cells, 5,000 cells per well, free uptake, 2,000 nM modified oligonucleotide, approx. 48 hours; RTS4814; normalized to RIBOGREEN; Yap1 mRNA relative to untreated control cells
row,Substance,YAP1 (% UTC)
1,716494 (kA*kA*kG*dG*dG*d[5mC]*dT*dT*dA*dT*dT*d[5mC]*dT*kA*kG*kA; antisense) [Compound 716494],112
2,716428 (kA*k[5mC]*kA*dG*dG*d[5mC]*dT*d[5mC]*dA*d[5mC]*dT*dT*d[5mC]*k[5mC]*k[5mC]*k[5mC]; antisense) [Compound 716428],10
3,716365 (kT*k[5mC]*kT*dG*dA*dT*dG*d[5mC]*d[5mC]*d[5mC]*dG*dG*d[5mC]*kG*kG*kG; antisense) [Compound 716365],83
4,716560 (kT*kA*kA*d[5mC]*dA*dA*dT*dT*dT*dA*dT*dG*dT*kA*kA*kG; antisense) [Compound 716560],107

# Same assay, conditions: Table 6; A-431 cells, 5,000 cells per well, free uptake, 2,000 nM modified oligonucleotide, approx. 48 hours; RTS4814; normalized to RIBOGREEN; Yap1 mRNA relative to untreated control cells
row,Substance,YAP1 (% UTC)
1,716420 (k[5mC]*kA*kA*d[5mC]*dT*dG*dG*d[5mC]*dT*dT*dA*dT*dG*kG*kA*kA; antisense) [Compound 716420],50
2,716399 (kA*kA*kT*dT*dT*dG*d[5mC]*dT*dG*dT*dG*d[5mC]*dT*kG*kG*kG; antisense) [Compound 716399],40
3,716402 (kA*kT*kT*dT*dT*dG*dA*dG*dT*d[5mC]*d[5mC]*d[5mC]*dA*k[5mC]*k[5mC]*kA; antisense) [Compound 716402],85

# Same assay, conditions: Table 18; A-431 cells, 5,000 cells per well, free uptake, 2,000 nM modified oligonucleotide, approx. 48 hours; RTS4814; normalized to RIBOGREEN; Yap1 mRNA as percent of untreated control
row,Substance,YAP1 (% UTC)
1,1075876 (kG*kT*kA*dT*dT*dT*dA*dT*dG*dA*dT*dG*dA*kT*kT*k[5mC]; antisense) [Compound 1075876],6
2,1075044 (antisense kA*kA*kT*dT*dA*dG*dA*d[5mC]*dT*d[5mC]*d[5mC]*d[5mC]*d[5mC]*k[5mC]*kA*kA) [Compound 1075044],58

# Same assay, conditions: Table 19; A-431 cells, 5,000 cells per well, free uptake, 2,000 nM modified oligonucleotide, approx. 48 hours; RTS4814; normalized to RIBOGREEN; Yap1 mRNA as percent of untreated control
row,Substance,YAP1 (% UTC)
1,1075429 (antisense k[5mC]*kT*kT*dT*dA*d[5mC]*dT*dA*dT*d[5mC]*dT*dG*dG*kG*kT*k[5mC]) [Compound 1075429],23
2,1074309 (antisense k[5mC]*k[5mC]*kG*d[5mC]*dA*dT*dT*dG*d[5mC]*d[5mC]*dT*dG*dT*kG*kG*k[5mC]) [Compound 1074309],80
3,1074725 (antisense kG*kT*kA*dT*dA*dA*d[5mC]*dT*dG*dG*dG*d[5mC]*dA*kA*kA*kT) [Compound 1074725],17
4,1074789 (kA*kT*k[5mC]*dA*dA*d[5mC]*d[5mC]*dA*dT*dA*dA*dG*dT*kA*kG*kA; antisense) [Compound 1074789],17
5,1074533 (antisense kT*kA*kG*dA*dA*d[5mC]*dA*d[5mC]*dT*dA*dA*dA*d[5mC]*kT*kA*k[5mC]) [Compound 1074533],80

# Same assay, conditions: Table 20; Yap1 mRNA, percent of untreated control; 3-10-3 cEt gapmers targeting SEQ ID NO.: 1 and 2
row,Substance,YAP1 (% UTC)
1,1074694 (antisense k[5mC]*k[5mC]*k[5mC]*d[5mC]*d[5mC]*d[5mC]*d[5mC]*d[5mC]*d[5mC]*dA*dA*dA*d[5mC]*kT*kT*kT) [Compound 1074694],79
2,1074950 (antisense kA*kT*k[5mC]*dA*dG*dG*dT*dT*dA*dA*dG*dT*dG*kA*kT*kT) [Compound 1074950],120
3,1075174 (antisense k[5mC]*k[5mC]*kT*dG*dA*dA*dA*dA*dG*dA*d[5mC]*dA*dG*kT*k[5mC]*k[5mC]) [Compound 1075174],74
4,1075750 (k[5mC]*kA*kA*dT*dT*dA*dT*dG*dA*dA*dT*dG*dA*kT*kG*kG; antisense) [Compound 1075750],10
5,1076294 (kT*kA*kT*dA*dT*dT*dA*dG*dT*dG*d[5mC]*d[5mC]*d[5mC]*k[5mC]*k[5mC]*kT; antisense) [Compound 1076294],6

# Same assay, conditions: Table 21; Yap1 mRNA, percent of untreated control; 3-10-3 cEt gapmers targeting SEQ ID NO.: 1 and 2
row,Substance,YAP1 (% UTC)
1,1074279 (antisense kG*kT*k[5mC]*dA*dA*dG*d[5mC]*d[5mC]*dT*dT*dG*dG*dG*kT*k[5mC]*kT) [Compound 1074279],13
2,1074311 (antisense kT*kT*k[5mC]*d[5mC]*dG*d[5mC]*dA*dT*dT*dG*d[5mC]*d[5mC]*dT*kG*kT*kG) [Compound 1074311],24
3,1075175 (antisense kA*k[5mC]*kT*dG*dA*dA*dA*dG*dA*dT*dT*d[5mC]*d[5mC]*kA*kT*kG) [Compound 1075175],99
4,1076551 (antisense kG*kT*kG*dG*dA*dA*dT*dA*dG*d[5mC]*dA*dG*d[5mC]*k[5mC]*kA*kT) [Compound 1076551],67

# Same assay, conditions: Table 22; Yap1 mRNA as percent of untreated control; 3-10-3 cEt gapmers; single dose
row,Substance,YAP1 (% UTC)
1,1074408 (antisense kG*kA*kT*dT*dA*dA*dA*dG*dT*dA*dT*d[5mC]*dT*kT*kG*k[5mC]) [Compound 1074408],23

# Same assay, conditions: Table 23; Yap1 mRNA as percent of untreated control; 3-10-3 cEt gapmers; single dose
row,Substance,YAP1 (% UTC)
1,1075273 (antisense kA*kA*kA*dT*dT*dA*dT*dG*dG*dT*d[5mC]*dA*dG*kG*k[5mC]*kT) [Compound 1075273],18
2,1076425 (k[5mC]*kG*kG*dG*dA*dA*dA*dA*dT*dT*d[5mC]*dT*dG*kG*kA*kG; antisense) [Compound 1076425],32
3,1076201 (k[5mC]*kT*kA*dA*dA*dA*dA*dG*dA*d[5mC]*dA*dG*dG*kG*k[5mC]*k[5mC]; antisense) [Compound 1076201],99

# Same assay, conditions: Table 24; Yap1 mRNA as percent of untreated control; 3-10-3 cEt gapmers targeting SEQ ID NO.: 1, and 2
row,Substance,YAP1 (% UTC)
1,1075818 (k[5mC]*kA*kT*dA*dA*d[5mC]*dT*dT*dA*dG*dA*dA*d[5mC]*k[5mC]*kA*kT; antisense) [Compound 1075818],35

# Same assay, conditions: Table 25; Yap1 mRNA as percent of untreated control; 3-10-3 cEt gapmers targeting SEQ ID NO.: 1, and 2
row,Substance,YAP1 (% UTC)
1,1074667 (antisense k[5mC]*k[5mC]*k[5mC]*dA*dA*d[5mC]*dA*dA*d[5mC]*dA*dT*dG*d[5mC]*kT*kA*kT) [Compound 1074667],15
2,1076555 (antisense kT*kG*kG*dG*dA*dA*dT*dA*dG*dT*dA*d[5mC]*dA*k[5mC]*kA*kG) [Compound 1076555],19

# Same assay, conditions: Table 32; Yap1 mRNA, percent of untreated control; 3-10-3 cEt gapmers targeting SEQ ID NO.: 1, and 2
row,Substance,YAP1 (% UTC)
1,1075986 (kG*kA*kA*dT*dA*dT*d[5mC]*dG*dA*dA*dA*dA*dG*k[5mC]*kA*kA; antisense) [compound 1075986],26
2,1074738 (k[5mC]*kT*kT*d[5mC]*dA*dG*dG*dT*d[5mC]*dA*dG*dT*dA*k[5mC]*kA*kG; antisense) [compound 1074738],12

# Same assay, conditions: Table 33; Yap1 mRNA, percent of untreated control; 3-10-3 cEt gapmers targeting SEQ ID NO.: 1, and 2
row,Substance,YAP1 (% UTC)
1,1076051 (k[5mC]*kT*kT*dA*dA*d[5mC]*dT*dA*dT*dT*d[5mC]*dA*dG*k[5mC]*k[5mC]*k[5mC]; antisense) [compound 1076051],21
2,1074163 (k[5mC]*kA*kG*dG*d[5mC]*dG*dA*dG*d[5mC]*dG*dA*dG*dG*kG*k[5mC]*kT; antisense) [compound 1074163],118
3,1075187 (kG*k[5mC]*k[5mC]*d[5mC]*dA*dA*dG*dG*dA*dG*dG*dA*dA*kA*kT*k[5mC]; antisense) [compound 1075187],77
4,1076531 (kA*k[5mC]*kT*dA*dT*dA*dA*dA*dG*dG*dG*dT*dT*kT*kA*kG; antisense) [compound 1076531],66

# Same assay, conditions: Yap1 mRNA as percent of untreated control; A-431 cells; 3-10-3 cEt gapmers targeting SEQ ID NO.: 1, and 2; Table 30
row,Substance,YAP1 (% UTC)
1,1074960 (antisense k[5mC]*kT*kT*dA*dA*d[5mC]*d[5mC]*d[5mC]*dG*dG*dG*dT*dT*kT*kT*kT) [compound 1074960],81
2,1075504 (k[5mC]*kT*kT*dA*dA*dA*dT*dG*dA*dG*dA*dG*dA*kA*k[5mC]*k[5mC]; antisense) [compound 1075504],71
3,1074768 (k[5mC]*kT*kT*dA*dT*d[5mC]*d[5mC]*d[5mC]*dA*dA*dT*dG*d[5mC]*kT*kA*k[5mC]; antisense) [compound 1074768],11
4,1075600 (antisense k[5mC]*kA*k[5mC]*dT*dA*dT*dA*dA*dT*d[5mC]*dT*dG*dA*k[5mC]*k[5mC]*k[5mC]) [compound 1075600],68

# Same assay, conditions: Yap1 mRNA as percent of untreated control; A-431 cells; 3-10-3 cEt gapmers targeting SEQ ID NO.: 1, and 2; Table 31
row,Substance,YAP1 (% UTC)
1,1075377 (antisense k[5mC]*kT*kA*dG*dA*dA*dA*dG*dG*dT*dT*dG*dG*k[5mC]*k[5mC]*k[5mC]) [compound 1075377],108
2,1074193 (antisense kG*kG*kT*d[5mC]*d[5mC]*dG*dG*dA*d[5mC]*dG*dG*d[5mC]*dG*kG*kG*k[5mC]) [compound 1074193],74
